Target: VEGFR2, unphosphorylated (Homo sapiens (Human), UniProt P35968)
Experiment: VEGFR ADP GLO Assay
Assay type: biochemical

Sequence of VEGFR2, unphosphorylated (P35968 20-1356): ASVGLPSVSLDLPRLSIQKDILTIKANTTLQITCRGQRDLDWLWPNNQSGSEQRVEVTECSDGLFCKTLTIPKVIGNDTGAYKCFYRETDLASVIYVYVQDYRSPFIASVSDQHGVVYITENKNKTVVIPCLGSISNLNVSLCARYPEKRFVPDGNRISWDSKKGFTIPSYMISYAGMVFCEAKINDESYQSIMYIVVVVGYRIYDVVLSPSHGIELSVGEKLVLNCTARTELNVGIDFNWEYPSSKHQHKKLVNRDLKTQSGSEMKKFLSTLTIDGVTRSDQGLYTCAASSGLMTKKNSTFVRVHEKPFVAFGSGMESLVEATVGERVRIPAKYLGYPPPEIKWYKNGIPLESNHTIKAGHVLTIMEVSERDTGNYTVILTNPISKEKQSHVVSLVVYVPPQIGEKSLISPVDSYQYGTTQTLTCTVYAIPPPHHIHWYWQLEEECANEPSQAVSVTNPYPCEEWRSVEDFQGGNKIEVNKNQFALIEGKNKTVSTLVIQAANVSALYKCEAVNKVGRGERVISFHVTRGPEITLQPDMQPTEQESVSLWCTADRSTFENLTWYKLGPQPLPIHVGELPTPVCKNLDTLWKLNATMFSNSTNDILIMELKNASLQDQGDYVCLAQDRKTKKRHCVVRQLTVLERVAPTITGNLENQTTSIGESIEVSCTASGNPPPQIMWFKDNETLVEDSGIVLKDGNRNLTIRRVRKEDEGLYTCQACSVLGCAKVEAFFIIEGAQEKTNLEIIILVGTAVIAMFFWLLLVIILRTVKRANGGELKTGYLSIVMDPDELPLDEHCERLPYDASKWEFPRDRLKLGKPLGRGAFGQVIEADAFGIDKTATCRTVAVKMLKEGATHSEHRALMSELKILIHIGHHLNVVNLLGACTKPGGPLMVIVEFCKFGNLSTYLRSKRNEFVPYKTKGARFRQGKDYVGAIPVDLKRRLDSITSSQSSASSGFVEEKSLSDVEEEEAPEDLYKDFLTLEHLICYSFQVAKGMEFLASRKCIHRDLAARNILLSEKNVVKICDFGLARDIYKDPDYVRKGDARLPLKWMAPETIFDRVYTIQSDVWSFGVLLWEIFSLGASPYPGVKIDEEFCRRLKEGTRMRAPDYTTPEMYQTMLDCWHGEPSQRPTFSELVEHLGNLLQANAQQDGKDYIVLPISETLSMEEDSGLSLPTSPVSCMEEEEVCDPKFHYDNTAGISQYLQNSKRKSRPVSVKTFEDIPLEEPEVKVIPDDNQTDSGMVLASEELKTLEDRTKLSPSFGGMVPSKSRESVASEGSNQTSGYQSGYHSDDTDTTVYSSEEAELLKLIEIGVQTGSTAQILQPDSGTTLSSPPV

Structure (SMILES) | IC50 [µM]
Cc1ncc(NC(=O)CN(C)C2CCOCC2)cc1NC(=O)c1cnn2cc(-c3cnn(C(C)C#N)c3)sc12 (centres unmarked) [Example 297, 2-(1-(1-cyanoethyl)-1H-pyrazol-4-yl)-N-(2-methyl-5-(2-(methyl(tetrahydro-2H-pyran-4-yl)amino)acetamido)pyridin-3-yl)pyrazolo[5,1-b]thiazole-7-carboxamide] | > 7.5
Cc1ncc(NC(=O)CN2CC(C)(C)C2)cc1NC(=O)c1cnn2cc(-c3ccsc3)sc12 [Example 282, N-(5-(2-(3,3-dimethylazetidin-1-yl)acetamido)-2-methylpyridin-3-yl)-2-(thiophen-3-yl)pyrazolo[5,1-b]thiazole-7-carboxamide] | 2.68
Cc1ncc(NC(=O)CC23CCCN2CCC3)cc1NC(=O)c1cnn2cc(-c3cnn(C)c3)sc12 [Example 302, 2-(1-methyl-1H-pyrazol-4-yl)-N-(2-methyl-5-(2-(tetrahydro-1H-pyrrolizin-7a(5H)-yl)acetamido)pyridin-3-yl)pyrazolo[5,1-b]thiazole-7-carboxamide] | > 7.5
COc1ncccc1-c1cn2ncc(C(=O)Nc3cc(NC(=O)CN4CCOCC45CCC5)cnc3C)c2s1 [Example 310, N-(5-(2-(8-oxa-5-azaspiro[3.5]nonan-5-yl)acetamido)-2-methylpyridin-3-yl)-2-(2-methoxypyridin-3-yl)pyrazolo[5,1-b]thiazole-7-carboxamide] | > 7.5
CC(=O)Nc1cncc(-c2cn3ncc(C(=O)Nc4cc(NC(=O)CN5CC(C)(C)C5)cnc4C)c3s2)c1 [Example 277, 2-(5-acetamidopyridin-3-yl)-N-(5-(2-(3,3-dimethylazetidin-1-yl)acetamido)-2-methylpyridin-3-yl)pyrazolo[5,1-b]thiazole-7-carboxamide] | > 2.5
Cc1ncc(NC(=O)CN2CC(C)(C)C2)cc1NC(=O)c1cnn2cc(-c3cnc4[nH]ncc4c3)sc12 [Example 288, N-(5-(2-(3,3-dimethylazetidin-1-yl)acetamido)-2-methylpyridin-3-yl)-2-(1H-pyrazolo[3,4-b]pyridin-5-yl)pyrazolo[5,1-b]thiazole-7-carboxamide] | > 2.5
COc1ncccc1-c1cn2ncc(C(=O)Nc3cc(NC(=O)CN4CCC5(CCOC5)C4)cnc3C)c2s1 (centres unmarked) [Example 320, N-(5-(2-(2-oxa-7-azaspiro[4.4]nonan-7-yl)acetamido)-2-methylpyridin-3-yl)-2-(2-methoxypyridin-3-yl)pyrazolo[5,1-b]thiazole-7-carboxamide] | > 7.5
Cc1ncc(NC(=O)CN2CC(C)(C)C2)cc1NC(=O)c1cnn2cc(-c3cccc4c3cnn4C)sc12 [Example 286, N-(5-(2-(3,3-dimethylazetidin-1-yl)acetamido)-2-methylpyridin-3-yl)-2-(1-methyl-1H-indazol-4-yl)pyrazolo[5,1-b]thiazole-7-carboxamide] | > 2.5
Cc1ncc(NC(=O)CN2CC(C)(C)C2)cc1NC(=O)c1cnn2cc(-c3cnn(C4COC4)c3)sc12 [Example 264, N-(5-(2-(3,3-dimethylazetidin-1-yl)acetamido)-2-methylpyridin-3-yl)-2-(1-(oxetan-3-yl)-1H-pyrazol-4-yl)pyrazolo[5,1-b]thiazole-7-carboxamide] | > 7.5
Cc1ncc(NC(=O)CN2CC(C)(C)C2)cc1NC(=O)c1cnn2cc(-c3c[nH]c4ccccc34)sc12 [Example 287, N-(5-(2-(3,3-dimethylazetidin-1-yl)acetamido)-2-methylpyridin-3-yl)-2-(1H-indol-3-yl)pyrazolo[5,1-b]thiazole-7-carboxamide] | 1.74
Cc1ncc(NC(=O)CN2CC(C)(C)C2)cc1NC(=O)c1cnn2cc(-c3ccc(CO)o3)sc12 [Example 292, N-(5-(2-(3,3-dimethylazetidin-1-yl)acetamido)-2-methylpyridin-3-yl)-2-(5-(hydroxymethyl)furan-2-yl)pyrazolo[5,1-b]thiazole-7-carboxamide] | > 7.5
Cc1ncc(NC(=O)CN(C)C2CCOCC2)cc1NC(=O)c1cnn2cc(-c3cnn(CC(N)=O)c3)sc12 [Example 300, 2-(1-(2-amino-2-oxoethyl)-1H-pyrazol-4-yl)-N-(2-methyl-5-(2-(methyl(tetrahydro-2H-pyran-4-yl)amino)acetamido)pyridin-3-yl)pyrazolo[5,1-b]thiazole-7-carboxamide] | > 7.5
Cc1ncc(NC(=O)C2CCCCN2C(C)C)cc1NC(=O)c1cnn2cc(-c3cccnc3O)sc12 (centres unmarked) [Example 314, 2-(2-hydroxypyridin-3-yl)-N-(5-(1-isopropylpiperidine-2-carboxamido)-2-methylpyridin-3-yl)pyrazolo[5,1-b]thiazole-7-carboxamide] | > 7.5
Cc1ncc(NC(=O)CN2CC(C)(C)C2)cc1NC(=O)c1cnn2cc(-c3ccc(C4(O)COC4)cc3)sc12 [Example 272, N-(5-(2-(3,3-dimethylazetidin-1-yl)acetamido)-2-methylpyridin-3-yl)-2-(4-(3-hydroxyoxetan-3-yl)phenyl)pyrazolo[5,1-b]thiazole-7-carboxamide] | > 7.5
Cc1ncc(NC(=O)CN2CC(C)(C)C2)cc1NC(=O)c1cnn2cc(-c3cnn(CC(C)O)c3)sc12 (centres unmarked) [Example 281, N-(5-(2-(3,3-dimethylazetidin-1-yl)acetamido)-2-methylpyridin-3-yl)-2-(1-(2-hydroxypropyl)-1H-pyrazol-4-yl)pyrazolo[5,1-b]thiazole-7-carboxamide] | > 7.5
Cc1ncc(NC(=O)CC(C)N2CCCCC2)cc1NC(=O)c1cnn2cc(-c3cnn(C)c3)sc12 (centres unmarked) [Example 307, 2-(1-methyl-1H-pyrazol-4-yl)-N-(2-methyl-5-(3-(piperidin-1-yl)butanamido)pyridin-3-yl)pyrazolo[5,1-b]thiazole-7-carboxamide] | > 7.5
Cc1ncc(NC(=O)CN2CC(C)(C)C2)cc1NC(=O)c1cnn2cc(-c3cnn(C4CCNCC4)c3)sc12 [Example 293, N-(5-(2-(3,3-dimethylazetidin-1-yl)acetamido)-2-methylpyridin-3-yl)-2-(1-(piperidin-4-yl)-1H-pyrazol-4-yl)pyrazolo[5,1-b]thiazole-7-carboxamide] | > 7.5
Cc1ncc(NC(=O)CN2CC(C)(C)C2)cc1NC(=O)c1cnn2cc(-c3cnn(CC(N)=O)c3)sc12 [Example 267, 2-(1-(2-amino-2-oxoethyl)-1H-pyrazol-4-yl)-N-(5-(2-(3,3-dimethylazetidin-1-yl)acetamido)-2-methylpyridin-3-yl)pyrazolo[5,1-b]thiazole-7-carboxamide] | > 7.5
Cc1ncc(NC(=O)CN2CCCCC23COC3)cc1NC(=O)c1cnn2cc(-c3cnn(C)c3)sc12 [Example 25, N-(5-(2-(2-oxa-5-azaspiro[3.5]nonan-5-yl)acetamido)-2-methylpyridin-3-yl)-2-(1-methyl-1H-pyrazol-4-yl)pyrazolo[5,1-b]thiazole-7-carboxamide] | > 7.5
Cc1ncc(NC(=O)CN2CC(C)(C)C2)cc1NC(=O)c1cnn2cc(-c3cnn(C)c3)sc12 [Example 22, N-(5-(2-(3,3-dimethylazetidin-1-yl)acetamido)-2-methylpyridin-3-yl)-2-(1-methyl-1H-pyrazol-4-yl)pyrazolo[5,1-b]thiazole-7-carboxamide] | > 7.5
